Reference: patent publication US9480754B2, “Phospholipid ether analogs as cancer-targeting drug vehicles” (Cellectar Biosciences, Inc., priority 2014, dated 2016)

How the values were obtained:
MDA-MB-468 cells [1] = test: Annexin V/PI flow cytometry, MDA-MB-468; assay type: cell-based
Procedure: (§1) Debris was eliminated from this analysis.
MDA-MB-468 cells, were also treated with CLR conjugates (CLR1606 and CLR1607) for 72 hours and with geldanamycin (“GEL”) for 48 hours.
(§2) CLR conjugates appear to require a longer treatment period with cells to induce cell death.

COLO 829 cells = test: Annexin V/PI flow cytometry, COLO 829; assay type: cell-based
Procedure: as §1
COLO 829 cells, a melanoma cell line, were treated with […] (CLR1606 and CLR1607) for 72 hrs and GEL for 48 hours.
as §2

PANC-1 cells = test: Annexin V/PI flow cytometry, PANC-1; assay type: cell-based; conditions: table title 72 hours, GEL for 48 hours
Procedure: as §1
PANC-1 cells, a pancreatic cancer cell line, were treated with GEL conjugates (CLR1606 and CLR1607) for 72 hrs and GEL for 48 hours.

22RV1 cells = test: Annexin V/PI flow cytometry, 22RV1; assay type: cell-based; conditions: table title 72 hours, GEL for 48 hours
Procedure: as §1
22RV1 cells, a prostate cancer cell line, were treated with GEL conjugates (CLR1606 and CLR1607) for 72 hrs and GEL for 48 hours. Cell viability was 20.3%, 21.3%, 16.0%, 21.9%, 15.7%, 19.4%, and 28.1% after treatment with no drug, 1 μM CLR1606, 10 μM CLR1606, 1 μM CLR1607, 10 μM CLR1607, 100 nM GEL, and 1 μM GEL, respectively.

[2] = test system: MDA-MB-468, NCI-H1299, NCI-H460, Capan-2, MiaPaCa-1, HT29, HCT116 and PC-3 cancer cell lines; test: Cell viability, panel of eight cancer cell lines; assay type: cell-based; conditions: serial concentrations
Procedure: The cell lines were then measured for cell viability and reported as IC50 for each treatment.
In vivo, free paclitaxel is taken up by cancerous tumor cells at a much lower rate due to the non-specific nature of paclitaxel uptake.

MDA-MB-468 cells [3] = test: Annexin V/PI flow cytometry, MDA-MB-468; assay type: cell-based; conditions: MDA-MB-468, 1 uM, 48 hrs
PC-3 cells = test: 125I-CLR1404 uptake after lipid raft disruption with filipin III; assay type: cell-based; conditions: PC-3 cells pretreated with 2 μg/ml filipin III 15 min, then 125I-CLR1404 1 h; vs untreated control cells
Procedure: PC-3 cells were pretreated with either 2 μg/ml filipin III or vehicle for 15 min, then washed and incubated with 2 μCi of ^125I-CLR1404 for 1 h. The media was removed and the cells were washed with phosphate buffered saline containing 0.1% bovine serum albumin, trypsinized, then split into two samples for determination of cell number by DNA content (A280 compared to a cell line specific standard curve) and counts per minute using a Gamma Counter (Perkin Elmer).
This supports the hypothesis that CLR1404 uses lipid rafts as portals of entry into cancer cells.

C6 glioma = test: Rat C6 glioma model, tissue distribution of NM404; assay type: in vivo; conditions: C6 glioma-bearing rats, 24 h after tail vein injection
Procedure: Materials and Methods: All animals were housed and handled in accordance with the University of Wisconsin Research Animal Resources Center guidelines. Rat C6 glioma cells were propagated in DMEM medium (Life Technologies, Gaithersburg, Md.) supplemented with 10% heat-inactivated FBS (BioWhittaker, Walkersville, Md.), 100 U/ml penicillin G, […] streptomycin, and 0.01 M HEPES (Life Technologies, Gaithersburg, Md.). Intracranial tumor implantation was performed as described previously. Cohen J D, et al., Intracranial C6 glioma model in adult Wistar-Furth rats. J Neuro Oncol 1990 8(1):95-6. Briefly, 1×10^6 C6 cells were resuspended in […] 1.2% methylcellulose and injected into the frontal lobes of anesthetized female Wistar rats (Harlan, Indianapolis, Ind.). Sham-operated animals received intracranial injections of an equal volume of methylcellulose without tumor cells.
Imaging Studies: Ten days after implantation, the presence of intracranial tumors was confirmed with MRI. […]
NM404 [18-(4-iodophenyl)-octadecylphosphocholine] […] In addition, normal brain, blood, kidney, liver, spleen, thyroid, and tumor tissues were weighed, and radioactivity counted in a gamma counter. The tissue distribution of radioactivity was then correlated to brain histology.

[4] = test system: cancer cell lines (renal, ovarian, pancreatic, melanoma, prostate) vs normal human skin fibroblast; test: CLR1501 uptake in cancer cell lines vs normal fibroblasts (confocal microscopy); assay type: cell-based; conditions: 24 hours, 5 or 7.5 μM, in vitro
Text: Human cancer cell lines were purchased from the American Type Culture Collection (ATCC). They included the following: Caki-2 (renal; clear cell carcinoma), HCT-116 (colorectal carcinoma); MES-SA/Dx5 (uterine sarcoma) [all maintained in McCoy's 5a medium supplemented with 10% fetal bovine serum (FBS)], Ovcar-3 (ovarian adenocarcinoma) [maintained in RPMI medium supplemented with 20% FBS], U87-MG (glioma) [maintained in minimum essential medium supplemented with 10% FBS], Mia Paca-2 (pancreatic carcinoma) (maintained in Dulbecco's modified Eagle's medium supplemented with 10% FBS), PC-3 (prostate carcinoma) (maintained in F-12K medium supplemented with 10% FBS), MDA-MB-231 (triple-negative mammary gland adenocarcinoma) (maintained in Leibovitz's medium supplemented with 10% FBS), and A549 (non-small cell lung carcinoma) (maintained in F-12 medium supplemented with 10% FBS). Normal human skin fibroblasts were purchased from ATCC and grown in Fibroblast Basal Medium PCS-201-030 supplemented with serum-free kit (Fibroblast Growth Kit-Serum-Free PCS-201-040). […]
All cells were maintained at 37° C. in appropriate medium supplemented with 10% FBS and 5% CO2. […] The emission signal of CLR1501 was detected using Alexa Fluor 488 filters (ex/em 480/520 nm). […]

[5] = test system: human glioblastoma stemlike cells and serum-cultured human glioblastoma cells; conditions: Weichert 2014, FIG. 2; cited from earlier work
[6] = MDA-MB-468, 1 uM, 72 hrs (Table 3)

COC1=C2C[C@@H](C)C[C@H](OC)[C@H](O)[C@@H](C)/C=C(\C)[C@H](OC(N)=O)[C@@H](OC)/C=C\C=C(/C)C(=O)NC(=CC1=O)C2=O [GEL, geldanamycin]
Live (MDA-MB-468 cells [1]; MDA-MB-468, GEL 1 uM, table title 72 hours, text: geldanamycin for 48 hours): 26.2 % of total cells | Live (COLO 829 cells; COLO 829, 100 nM, 48 hrs (Table 9)): 36.1 % of total cells | Live (COLO 829 cells; COLO 829, 1 uM, 48 hrs (Table 9)): 24.6 % of total cells | Live (COLO 829 cells; COLO 829, GEL 100 nM, Table 5 title 72 hours, GEL for 48 hours): 32.4 % of total cells | Live (COLO 829 cells; COLO 829, GEL 1 uM, Table 5 title 72 hours, GEL for 48 hours): 18.6 % of total cells | Live (PANC-1 cells; PANC-1, GEL 100 nM): 23.3 % of total cells | Live (PANC-1 cells; PANC-1, GEL 1 uM): 18.9 % of total cells | Live (22RV1 cells; 22RV1, GEL 100 nM): 19.4 % of total cells | Live (22RV1 cells; 22RV1, GEL 1 uM): 28.1 % of total cells

CC(=O)O[C@H]1C(=O)[C@@]2(C)[C@H]([C@H](OC(=O)c3ccccc3)[C@]3(O)C[C@H](OC(=O)[C@H](OC(=O)CCCC(=O)Nc4ccc(CCCCCCCCCCCCCCCCCCOP(=O)([O-])OCC[N+](C)(C)C)cc4)[C@@H](NC(=O)c4ccccc4)c4ccccc4)C(C)=C1C3(C)C)[C@]1(OC(C)=O)CO[C@@H]1C[C@@H]2O [CLR1601]
ability to reduce cancer cell line viability [2]: capable of reducing cell viability | Early Apoptotic (MDA-MB-468 cells [1]; [6]): 9.83 % of total cells | Live (MDA-MB-468 cells [1]; [6]): 17 % of total cells | Live (MDA-MB-468 cells [1]; MDA-MB-468, 5 uM, 72 hrs): 17.8 % of total cells | Late Apoptotic (MDA-MB-468 cells [3]): 6 % of total cells | Live (MDA-MB-468 cells [3]): 79.4 % of total cells

CC(=O)O[C@H]1C(=O)[C@]2(C)[C@@H](OC(=O)NCCCC(=O)Nc3ccc(CCCCCCCCCCCCCCCCCCOP(=O)([O-])OCC[N+](C)(C)C)cc3)C[C@H]3OC[C@@]3(OC(C)=O)[C@H]2[C@H](OC(=O)c2ccccc2)[C@]2(O)C[C@H](OC(=O)[C@H](O)[C@@H](NC(=O)c3ccccc3)c3ccccc3)C(C)=C1C2(C)C [CLR1602]
ability to reduce cancer cell line viability [2]: not capable of significantly reducing cancer cell line viability

C[N+](C)(C)CCOP(=O)([O-])OCCCCCCCCCCCCCCCCCCc1ccc(I)cc1 [NM404, 18-(4-iodophenyl)-octadecylphosphocholine]
reduction of uptake when lipid rafts are disrupted (PC-3 cells): ~40% | Tumor to brain ratio (% injected dose/g) (C6 glioma): 10.5

C[N+](C)(C)CCOP(=O)([O-])OCCCCCCCCCCCCCCCCCCc1ccc(C2=C3C=CC=[N+]3[B-](F)(F)n3cccc32)cc1 [CLR1501]
preferential uptake in cancer cell lines compared to normal fibroblasts [4]: five to nine-fold | uptake compared to normal human astrocytes and fetal human neural stem cells [5]: enhanced uptake

CC(=O)O[C@H]1C(=O)[C@@]2(C)[C@H]([C@H](OC(=O)c3ccccc3)[C@]3(O)C[C@H](OC(=O)[C@H](OC(=O)OCCCCC(=O)Nc4ccc(CCCCCCCCCCCCCCCCCCOP(=O)([O-])OCC[N+](C)(C)C)cc4)[C@@H](NC(=O)c4ccccc4)c4ccccc4)C(C)=C1C3(C)C)[C@]1(OC(C)=O)CO[C@@H]1C[C@@H]2O [CLR1603]
ability to reduce cancer cell line viability [2]: capable of reducing cell viability | Live (MDA-MB-468 cells [1]; [6]): 22.2 % of total cells | Necrotic (MDA-MB-468 cells [1]; [6]): 22 % of total cells | Live (MDA-MB-468 cells [1]; MDA-MB-468, 5 uM, 72 hrs): 19.7 % of total cells | Early Apoptotic (MDA-MB-468 cells [3]): 1.4 % of total cells | Live (MDA-MB-468 cells [3]): 81.4 % of total cells
